US20100168133A1, “USE OF SUBSTITUTED QUINOLINE DERIVATIVES FOR THE TREATMENT OF DRUG RESISTANT MYCOBACTERIAL DISEASES” (priority 2004, published 2010)
Converted amounts (≈) assume the structure as drawn.

Test system: 73 M. tuberculosis strains (41 fully susceptible, 32 MDR)
Assay: microbe, parasite or virus in culture
Assay type: cell-based

COc1nc2ccc(Br)cc2cc1[C@@H](c1ccccc1)[C@@](O)(CCN(C)C)c1cccc2ccccc12 [Compound 12, (αS,βR)-6-bromo-α-[2-(dimethylamino)ethyl]-2-methoxy-α-1-naphthalenyl-β-phenyl-3-quinolineethanol]
difference in MIC between fully susceptible and MDR M. tuberculosis strains: No difference in MIC
MIC (Mycobacterium tuberculosis, 504 h, the majority of the 73 strains, agar plates, 36° C., 3 weeks): 0.032 µg/mL (≈ 0.0576 µM)
concentrations at which no growth was seen (all the tested strains (73), agar plates, 36° C., 3 weeks): higher than 0.064 mg/L
